According to patent US20230027075A1, “SULFONAMIDE COMPOUNDS TARGETING CD73 AND ADENOSINE RECEPTORS” (Aurigene Discovery Technologies Limited, priority 2019, published 2023):

Columns and labels:
[1] = target: T1, human-CD73 (Trp27-Lys547, His-tag) (Homo sapiens, UniProt P21589); assay: CD73 biochemical assay (colorimetric, Malachite Green phosphate detection); details: 2 nM CD73, 50 μM AMP; for inhibition at 20 µM: 20 μM compound, read-out: % inhibition at 20 μM (Percent inhibition data in CD73); for IC50: four-parameter curve fit, read-out: Potency (IC50 values) of selected compounds in CD73, group
T1 construct: human-CD73 (Trp27-Lys547, His-tag); His-tag
T1 sequence (P21589 27-547): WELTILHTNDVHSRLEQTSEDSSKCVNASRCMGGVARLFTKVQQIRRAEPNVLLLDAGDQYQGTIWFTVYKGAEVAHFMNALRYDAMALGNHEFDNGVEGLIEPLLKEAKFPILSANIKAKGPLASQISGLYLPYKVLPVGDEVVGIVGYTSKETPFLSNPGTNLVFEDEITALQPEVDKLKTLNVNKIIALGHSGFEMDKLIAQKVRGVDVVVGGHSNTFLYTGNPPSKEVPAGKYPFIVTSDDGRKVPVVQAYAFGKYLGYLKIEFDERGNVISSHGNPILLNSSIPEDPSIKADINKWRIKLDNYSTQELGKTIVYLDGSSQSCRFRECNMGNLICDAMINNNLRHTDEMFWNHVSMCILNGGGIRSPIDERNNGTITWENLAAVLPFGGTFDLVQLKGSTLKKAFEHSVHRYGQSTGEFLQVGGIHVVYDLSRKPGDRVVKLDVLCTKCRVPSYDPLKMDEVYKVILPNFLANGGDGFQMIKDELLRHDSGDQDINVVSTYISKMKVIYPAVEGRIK
Procedure: A colorimetric-based method was used for assaying compounds of the invention for CD73 enzyme inhibitory activity. Human CD73 catalyzes the conversion of AMP to adenosine with the release of orthophosphate. A Malachite Green Phosphate Detection kit is used to measure the formation of orthophosphate product. […] A compound of the present invention and enzyme are incubated for 30 minutes at room temperature. Next, 20 μL of AMP in assay buffer is added to the plate. The final concentration of CD73 and AMP are 2 nM and 50 μM respectively. Following 30 minutes reaction at room temperature, 20 μL of Malachite reagent is added to all the reaction wells. The formation of green complex formed between Malachite Green, molybdate and free orthophosphate is measured on a plate reader (620 nm).

[2] = target: T2, A2aR (Homo sapiens, UniProt P29274); assay: A2aR biochemical assay (TR-FRET binding, Tag-lite A2aR labelled cells, fluorescent antagonist); details: 20 μM compound; 10 nM fluorescent A2aR antagonist; vs DMSO control; read-out: % inhibition at 20 μM (Percent inhibition data in A2aR)
T2 construct: expressed in transfected cells
T2 sequence (P29274 whole entry): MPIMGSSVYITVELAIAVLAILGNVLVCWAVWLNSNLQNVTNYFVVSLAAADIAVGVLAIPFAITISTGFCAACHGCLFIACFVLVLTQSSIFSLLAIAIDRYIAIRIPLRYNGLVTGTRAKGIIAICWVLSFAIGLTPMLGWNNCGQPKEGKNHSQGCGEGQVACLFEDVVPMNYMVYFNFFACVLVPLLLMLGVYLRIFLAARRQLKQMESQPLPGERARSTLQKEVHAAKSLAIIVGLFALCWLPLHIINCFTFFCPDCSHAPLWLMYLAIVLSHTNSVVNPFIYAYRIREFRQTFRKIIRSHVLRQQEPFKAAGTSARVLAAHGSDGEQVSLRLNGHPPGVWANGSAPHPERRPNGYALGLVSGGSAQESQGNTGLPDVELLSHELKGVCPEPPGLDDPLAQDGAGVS
Procedure: The compounds of present invention were assayed for A2aR enzyme binding activity in a TR-FRET based method. Typically, 10 μL of A2aR labelled cells in assay buffer (Tag-lite, 1×) is added to a 384-well plate containing 5 μL of a compound of present invention in final 1% DMSO, serially diluted in 1:5 in a 5-6 point titration. The aforesaid compound and cells are incubated for 30 minutes at room temperature. Next, 5 μL of A2aR antagonist (fluorescent ligand) in assay buffer is added to the plate. The final concentration of A2aR antagonist is 10 nM. Following 30 minutes reaction at room temperature, the plate was read on a plate reader (Ex: 340 nm Em: 615 nm and 665 nm) to measure the binding of test compound to A2aR cells. The results are interpreted as percentage inhibition as presented in Table-2A of binding by the test compound with respect to the DMSO control.

| inhibition at 20 µM [1] [%] | IC50 [1] [nM] | inhibition at 20 µM [2] [%] | SMILES |
| --- | --- | --- | --- |
| 86 | > 1000 | 83 | NC(=O)c1cc(S(=O)(=O)Nc2ccc(CCNc3nc(N)n4nc(-c5ccco5)nc4n3)nc2)cc(Cl)c1O [Example E1, 5-(N-(6-(2-((7-amino-2-(furan-2-yl)-[1,2,4]triazolo[1,5-a][1,3,5]triazin-5-yl)amino)ethyl)pyridin-3-yl)sulfamoyl)-3-chloro-2-hydroxybenzamide] |
| 94 | 110 to 1000 | 85 | NC(=O)c1cc(S(=O)(=O)Nc2ccc(CCNc3cc(N)n4nc(-c5ccco5)nc4n3)nc2)cc(Cl)c1O [Example E2, 5-(N-(6-(2-((7-amino-2-(furan-2-yl)-[1,2,4]triazolo[1,5-a]pyrimidin-5-yl)amino)ethyl)pyridin-3-yl)sulfamoyl)-3-chloro-2-hydroxybenzamide] |
